Data set [1] relates to Staphylococcus aureus. The data set is described as follows: Antimicrobial activity against methicillin resistant Staphylococcus aureus C5382 assessed as inhibition of cell growth in the presence of oxacillin at 1/2 times of MIC by microdilution method. The format is functional. A general note: Broth dilution looks for growth in wells or tubes with falling amounts of substance.

Data set [2] concerns Staphylococcus aureus. The experiment in a line: Antimicrobial activity against methicillin resistant Staphylococcus aureus C5380 assessed as inhibition of cell growth in the presence of oxacillin at 1/2 times of MIC by microdilution method. The format is functional.
Data set [3] concerns Staphylococcus aureus. The experiment in a line: Antimicrobial activity against methicillin resistant Staphylococcus aureus C5171 assessed as inhibition of cell growth in the presence of oxacillin at 1/2 times of MIC by microdilution method. The format is functional.
Data set [4] relates to Staphylococcus aureus. The experiment in a line: Antimicrobial activity against methicillin resistant Staphylococcus aureus C3787 assessed as inhibition of cell growth in the presence of oxacillin at 1/2 times of MIC by microdilution method. Format: functional.
The subject of data set [5] is Staphylococcus aureus. The data set is described as follows: Antimicrobial activity against methicillin resistant Staphylococcus aureus C3212 assessed as inhibition of cell growth in the presence of oxacillin at 1/2 times of MIC by microdilution method. The format is functional.
In data set [6] the test system is Staphylococcus aureus. The experiment in a line: Antimicrobial activity against methicillin resistant Staphylococcus aureus C5294 assessed as inhibition of cell growth in the presence of oxacillin at 1/2 times of MIC by microdilution method. The format is functional.
Data set [7] concerns Staphylococcus aureus. The data set is described as follows: Antimicrobial activity against methicillin resistant Staphylococcus aureus C4058 assessed as inhibition of cell growth in the presence of oxacillin at 1/2 times of MIC by microdilution method. Format: functional.
For data set [8], the system named is Staphylococcus aureus. The experiment in a line: Antimicrobial activity against methicillin resistant Staphylococcus aureus C5177 assessed as inhibition of cell growth in the presence of oxacillin at 1/2 times of MIC by microdilution method. The format is functional.
Data set [9] concerns Staphylococcus aureus. The data set is described as follows: Antimicrobial activity against methicillin resistant Staphylococcus aureus K118 assessed as inhibition of cell growth in the presence of oxacillin at 1/4 times of MIC by microdilution method. The format is functional.
Data set [10] concerns Staphylococcus aureus. The experiment in a line: Antimicrobial activity against methicillin resistant Staphylococcus aureus C5282 assessed as inhibition of cell growth in the presence of oxacillin at 1/4 times of MIC by microdilution method. The format is functional.
Data set [11] deals with Staphylococcus aureus. The data set is described as follows: Antimicrobial activity against methicillin resistant Staphylococcus aureus C5269 assessed as inhibition of cell growth in the presence of oxacillin at 1/4 times of MIC by microdilution method. Format: functional.
Data set [12] deals with Staphylococcus aureus. The data set is described as follows: Antimicrobial activity against methicillin resistant Staphylococcus aureus C5382 assessed as inhibition of cell growth in the presence of oxacillin at 1/4 times of MIC by microdilution method. The format is functional.
The subject of data set [13] is Staphylococcus aureus. The data set is described as follows: Antimicrobial activity against methicillin resistant Staphylococcus aureus C5380 assessed as inhibition of cell growth in the presence of oxacillin at 1/4 times of MIC by microdilution method. Format: functional.
For data set [14], the system named is Staphylococcus aureus. The data set is described as follows: Antimicrobial activity against methicillin resistant Staphylococcus aureus C5171 assessed as inhibition of cell growth in the presence of oxacillin at 1/4 times of MIC by microdilution method. Format: functional.
The test system of data set [15] is Staphylococcus aureus. The data set is described as follows: Antimicrobial activity against methicillin resistant Staphylococcus aureus C3787 assessed as inhibition of cell growth in the presence of oxacillin at 1/4 times of MIC by microdilution method. Format: functional.
The subject of data set [16] is Staphylococcus aureus. The experiment in a line: Antimicrobial activity against methicillin resistant Staphylococcus aureus C3212 assessed as inhibition of cell growth in the presence of oxacillin at 1/4 times of MIC by microdilution method. The format is functional.
In data set [17] the test system is Staphylococcus aureus. The data set is described as follows: Antimicrobial activity against methicillin resistant Staphylococcus aureus C5294 assessed as inhibition of cell growth in the presence of oxacillin at 1/4 times of MIC by microdilution method. Format: functional.
Data set [18] has as its system Staphylococcus aureus. The data set is described as follows: Antimicrobial activity against methicillin resistant Staphylococcus aureus C4058 assessed as inhibition of cell growth in the presence of oxacillin at 1/4 times of MIC by microdilution method. The format is functional.
Data set [19] has as its system Staphylococcus aureus. The experiment in a line: Antimicrobial activity against methicillin resistant Staphylococcus aureus C5177 assessed as inhibition of cell growth in the presence of oxacillin at 1/4 times of MIC by microdilution method. The format is functional.
The test system of data set [20] is Staphylococcus aureus. The data set is described as follows: Antimicrobial activity against methicillin resistant Staphylococcus aureus K118 assessed as inhibition of cell growth in the presence of oxacillin at 1/8 times of MIC by microdilution method. The format is functional.
The test system of data set [21] is Staphylococcus aureus. The data set is described as follows: Antimicrobial activity against methicillin resistant Staphylococcus aureus C5282 assessed as inhibition of cell growth in the presence of oxacillin at 1/8 times of MIC by microdilution method. Format: functional.
Data set [22] deals with Staphylococcus aureus. The data set is described as follows: Antimicrobial activity against methicillin resistant Staphylococcus aureus C5269 assessed as inhibition of cell growth in the presence of oxacillin at 1/8 times of MIC by microdilution method. The format is functional.
Data set [23] deals with Staphylococcus aureus. The experiment in a line: Antimicrobial activity against methicillin resistant Staphylococcus aureus C5382 assessed as inhibition of cell growth in the presence of oxacillin at 1/8 times of MIC by microdilution method. The format is functional.
Data set [24] deals with Staphylococcus aureus. The data set is described as follows: Antimicrobial activity against methicillin resistant Staphylococcus aureus C5380 assessed as inhibition of cell growth in the presence of oxacillin at 1/8 times of MIC by microdilution method. Format: functional.
The subject of data set [25] is Staphylococcus aureus. The experiment in a line: Antimicrobial activity against methicillin resistant Staphylococcus aureus C5171 assessed as inhibition of cell growth in the presence of oxacillin at 1/8 times of MIC by microdilution method. The format is functional.
Data set [26] concerns Staphylococcus aureus. The data set is described as follows: Antimicrobial activity against methicillin resistant Staphylococcus aureus C3787 assessed as inhibition of cell growth in the presence of oxacillin at 1/8 times of MIC by microdilution method. Format: functional.
In data set [27] the test system is Staphylococcus aureus. The experiment in a line: Antimicrobial activity against methicillin resistant Staphylococcus aureus C3212 assessed as inhibition of cell growth in the presence of oxacillin at 1/8 times of MIC by microdilution method. Format: functional.
In data set [28] the test system is Staphylococcus aureus. The data set is described as follows: Antimicrobial activity against methicillin resistant Staphylococcus aureus C5294 assessed as inhibition of cell growth in the presence of oxacillin at 1/8 times of MIC by microdilution method. Format: functional.
The subject of data set [29] is Staphylococcus aureus. The data set is described as follows: Antimicrobial activity against methicillin resistant Staphylococcus aureus C4058 assessed as inhibition of cell growth in the presence of oxacillin at 1/8 times of MIC by microdilution method. The format is functional.
Data set [30] concerns Staphylococcus aureus. The experiment in a line: Antimicrobial activity against methicillin resistant Staphylococcus aureus C5177 assessed as inhibition of cell growth in the presence of oxacillin at 1/8 times of MIC by microdilution method. Format: functional.
The subject of data set [31] is Staphylococcus aureus. The experiment in a line: Antibacterial activity against methicillin resistant Staphylococcus aureus 42 assessed as inhibition of bacterial growth. Format: functional.
In data set [32] the test system is Staphylococcus aureus. The data set is described as follows: Antibacterial activity against methicillin resistant Staphylococcus aureus 128 assessed as inhibition of bacterial growth. The format is functional.
For data set [33], the system named is Staphylococcus aureus. The experiment in a line: Antibacterial activity against methicillin resistant Staphylococcus aureus 181 assessed as inhibition of bacterial growth. The format is functional.
Data set [34] concerns Staphylococcus aureus. The data set is described as follows: Antibacterial activity against methicillin resistant Staphylococcus aureus 747 assessed as inhibition of bacterial growth. The format is functional.
Data set [35] relates to Staphylococcus aureus. The data set is described as follows: Potency index, ratio of cefepime MIC to test compound MIC for antibacterial activity against methicillin resistant Staphylococcus aureus 42 assessed as inhibition of bacterial growth. The format is functional.
For data set [36], the system named is Staphylococcus aureus. The experiment in a line: Antibacterial activity against methicillin resistant Staphylococcus aureus ATCC 43300 assessed as inhibition of bacterial growth incubated for 24 to 48 hrs by spectrophotometric analysis. Format: functional. To be noted: time 24-48 hrs.
The test system of data set [37] is Staphylococcus aureus. The data set is described as follows: Potency index, ratio of ciprofloxacin MIC to test compound MIC for antibacterial activity against methicillin resistant Staphylococcus aureus ATCC 43300 assessed as inhibition of bacterial growth incubated for 24 to 48 hrs by spectrophotometric analysis. The format is functional. To be noted: time 24-48 hrs.

For data set [38], the system named is Staphylococcus aureus. The experiment in a line: Potency index, ratio of chloramphenicol MIC to test compound MIC for antibacterial activity against methicillin resistant Staphylococcus aureus ATCC 43300 assessed as inhibition of bacterial growth incubated for 24 to 48 hrs by spectrophotometric analysis. The format is functional. As to conditions: time 24-48 hrs.

Data set [39] concerns Staphylococcus aureus. The experiment in a line: Antibacterial activity against Staphylococcus aureus ATCC 29213 assessed as inhibition of bacterial growth by CLSI protocol based microdilution method. The format is functional.
Data set [40] relates to Staphylococcus aureus. The data set is described as follows: Antibacterial activity against Staphylococcus aureus ATCC 27660 assessed as inhibition of bacterial growth by CLSI protocol based microdilution method. Format: functional.
Data set [41] deals with Staphylococcus aureus. The experiment in a line: Antibacterial activity against Staphylococcus aureus NRS100 (COL) assessed as inhibition of bacterial growth by CLSI protocol based microdilution method. The format is functional.
The test system of data set [42] is Staphylococcus aureus. The data set is described as follows: Antibacterial activity against Staphylococcus aureus NRS119 assessed as inhibition of bacterial growth by CLSI protocol based microdilution method. Format: functional.
Data set [43] relates to Staphylococcus aureus. The data set is described as follows: Antibacterial activity against Staphylococcus aureus NRS120 assessed as inhibition of bacterial growth by CLSI protocol based microdilution method. Format: functional.
In data set [44] the test system is Staphylococcus aureus. The data set is described as follows: Antibacterial activity against vancomycin resistant Staphylococcus aureus 1 assessed as inhibition of bacterial growth by CLSI protocol based microdilution method. The format is functional.
Data set [45] has as its system Staphylococcus aureus. The experiment in a line: Antibacterial activity against vancomycin resistant Staphylococcus aureus 2 assessed as inhibition of bacterial growth by CLSI protocol based microdilution method. The format is functional.
The nature of data set [46]: Oral bioavailability in ICR mouse at 50 mg/kg. Format: ADME, organism-based. As to conditions: in vivo.
The nature of data set [47]: Elimination half life in ICR mouse at 50 mg/kg, iv. The format is ADME, organism-based. To be noted: in vivo, read-out: beta t1/2 (converted).

≈ marks a conversion by molar mass, not a printed value.

Regarding `FC(F)(F)c1ccc(Oc2ccc(-c3noc(-c4ccc5[nH]ccc5c4)n3)cc2)cc1`, the MIC in the data set with Staphylococcus aureus [1], in the data set on Staphylococcus aureus [2], in the data set with Staphylococcus aureus [3], in the data set on Staphylococcus aureus [4], in the data set with Staphylococcus aureus [5] and with Staphylococcus aureus [6] was ≤ 0.03 µg/mL in each case. Also, the MIC in the data set on Staphylococcus aureus [7], with Staphylococcus aureus [8], in the data set with Staphylococcus aureus [9], with Staphylococcus aureus [10], with Staphylococcus aureus [11] and with Staphylococcus aureus [12] was ≤ 0.03 µg/mL in each case. Moreover, the MIC in the data set with Staphylococcus aureus [13], in the data set on Staphylococcus aureus [14], in the data set on Staphylococcus aureus [15], with Staphylococcus aureus [16], in the data set with Staphylococcus aureus [17] and with Staphylococcus aureus [18] was ≤ 0.03 µg/mL in each case. The MIC with Staphylococcus aureus [19], in the data set with Staphylococcus aureus [20], in the data set on Staphylococcus aureus [21], with Staphylococcus aureus [22], in the data set on Staphylococcus aureus [23] and with Staphylococcus aureus [24] was ≤ 0.03 µg/mL each time. The MIC (as a rule, the smallest concentration in the dilution series that meets the test's criterion for growth inhibition) is ≤ 0.03 µg/mL in the data set with Staphylococcus aureus [25]; ≤ 0.03 µg/mL with Staphylococcus aureus [26]; ≤ 0.03 µg/mL in the data set with Staphylococcus aureus [27]; ≤ 0.03 µg/mL with Staphylococcus aureus [28]; ≤ 0.03 µg/mL in the data set on Staphylococcus aureus [29]; < 0.03 µg/mL in the data set with Staphylococcus aureus [30].
Take `O=c1c(Br)cnc2onc(-c3ccc(F)cc3F)n12`: the MIC in the data set on Staphylococcus aureus [31] was determined as 12.4 µg/mL (≈ 37.8 µM); with Staphylococcus aureus [32] it was 17.6 µg/mL (≈ 53.6 µM); with Staphylococcus aureus [33], 29.9 µg/mL (≈ 91.1 µM); with Staphylococcus aureus [34] it was 29.9 µg/mL (≈ 91.1 µM). Moreover, the Ratio in the data set on Staphylococcus aureus [35] came to 3.
Regarding `O=C(/C=C/c1ccc(F)cc1)N1N=C(c2ccncc2)OC1c1cn(-c2ccccc2)nc1-c1ccc(F)cc1` (configuration not stated), the MIC in the data set with Staphylococcus aureus [36] was 6.25 µg/mL (≈ 11.7 µM). Besides, the figures for the Ratio with Staphylococcus aureus [37] and with Staphylococcus aureus [38] were 4 and 8, respectively.
In the case of `Oc1ccc(-c2nc(-c3ccc(Oc4ccc(C(F)(F)F)cc4)cc3)no2)cc1`, the MIC with Staphylococcus aureus [39], in the data set with Staphylococcus aureus [40], in the data set on Staphylococcus aureus [41], in the data set on Staphylococcus aureus [42], in the data set with Staphylococcus aureus [43] and in the data set on Staphylococcus aureus [44] was 2 µg/mL (≈ 5.02 µM) throughout. Besides, in the data set with Staphylococcus aureus [45], the MIC was 2 µg/mL (≈ 5.02 µM). The bioavailability (in general, dose-corrected exposure relative to a reference, in per cent) in data set [46] stood at 100%. Besides, the half-life in [47] was 40 h.
